The record followed here is article PMC8550792, “Evolution of kinase polypharmacology across HSP90 drug discovery” (Cell Chemical Biology, 2021).

What all share (assay): biochemical
What all share (assay type): biochemical

In experiment [1] the target is T1, 382 unique human kinases (Homo sapiens, UniProt Q7L7X3).
T1 construct: purchased Reaction Biology (HotSpot contract assay)
T1 sequence (Q7L7X3 1-1001): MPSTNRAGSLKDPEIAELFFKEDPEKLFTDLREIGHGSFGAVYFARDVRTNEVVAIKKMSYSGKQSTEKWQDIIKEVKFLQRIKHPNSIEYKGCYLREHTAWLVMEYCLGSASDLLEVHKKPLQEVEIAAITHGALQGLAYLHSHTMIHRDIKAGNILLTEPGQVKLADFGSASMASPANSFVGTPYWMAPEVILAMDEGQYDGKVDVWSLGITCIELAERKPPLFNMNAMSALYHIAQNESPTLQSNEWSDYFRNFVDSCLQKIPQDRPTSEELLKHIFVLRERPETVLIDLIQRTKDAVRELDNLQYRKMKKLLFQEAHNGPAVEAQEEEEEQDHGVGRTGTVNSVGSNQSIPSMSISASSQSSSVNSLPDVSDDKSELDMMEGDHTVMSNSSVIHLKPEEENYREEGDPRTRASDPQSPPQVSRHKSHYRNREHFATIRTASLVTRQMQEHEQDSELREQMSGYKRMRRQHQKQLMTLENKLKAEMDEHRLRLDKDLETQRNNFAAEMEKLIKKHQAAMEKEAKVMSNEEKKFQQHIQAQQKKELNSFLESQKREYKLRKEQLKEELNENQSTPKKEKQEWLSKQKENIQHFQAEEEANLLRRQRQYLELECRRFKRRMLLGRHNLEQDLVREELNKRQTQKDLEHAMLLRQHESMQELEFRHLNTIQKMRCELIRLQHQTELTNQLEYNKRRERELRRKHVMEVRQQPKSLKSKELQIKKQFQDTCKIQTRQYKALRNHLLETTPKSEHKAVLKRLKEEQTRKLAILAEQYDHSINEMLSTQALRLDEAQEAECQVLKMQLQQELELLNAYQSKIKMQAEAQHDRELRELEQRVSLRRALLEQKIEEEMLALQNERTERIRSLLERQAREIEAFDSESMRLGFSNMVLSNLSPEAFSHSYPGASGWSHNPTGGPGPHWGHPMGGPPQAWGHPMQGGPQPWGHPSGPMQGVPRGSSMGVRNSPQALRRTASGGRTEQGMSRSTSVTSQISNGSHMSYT
Particulars: kinase TAOK1, compound 10 uM; for remaining activity at 10 µM: read-out: % Enzyme Activity (relative to DMSO controls).

Experiment [2] deals with T2, 382 unique human kinases (Homo sapiens, UniProt P07949, R813Q).
T2 construct: purchased Reaction Biology (HotSpot contract assay)
T2 sequence (P07949 29-1114 R813Q): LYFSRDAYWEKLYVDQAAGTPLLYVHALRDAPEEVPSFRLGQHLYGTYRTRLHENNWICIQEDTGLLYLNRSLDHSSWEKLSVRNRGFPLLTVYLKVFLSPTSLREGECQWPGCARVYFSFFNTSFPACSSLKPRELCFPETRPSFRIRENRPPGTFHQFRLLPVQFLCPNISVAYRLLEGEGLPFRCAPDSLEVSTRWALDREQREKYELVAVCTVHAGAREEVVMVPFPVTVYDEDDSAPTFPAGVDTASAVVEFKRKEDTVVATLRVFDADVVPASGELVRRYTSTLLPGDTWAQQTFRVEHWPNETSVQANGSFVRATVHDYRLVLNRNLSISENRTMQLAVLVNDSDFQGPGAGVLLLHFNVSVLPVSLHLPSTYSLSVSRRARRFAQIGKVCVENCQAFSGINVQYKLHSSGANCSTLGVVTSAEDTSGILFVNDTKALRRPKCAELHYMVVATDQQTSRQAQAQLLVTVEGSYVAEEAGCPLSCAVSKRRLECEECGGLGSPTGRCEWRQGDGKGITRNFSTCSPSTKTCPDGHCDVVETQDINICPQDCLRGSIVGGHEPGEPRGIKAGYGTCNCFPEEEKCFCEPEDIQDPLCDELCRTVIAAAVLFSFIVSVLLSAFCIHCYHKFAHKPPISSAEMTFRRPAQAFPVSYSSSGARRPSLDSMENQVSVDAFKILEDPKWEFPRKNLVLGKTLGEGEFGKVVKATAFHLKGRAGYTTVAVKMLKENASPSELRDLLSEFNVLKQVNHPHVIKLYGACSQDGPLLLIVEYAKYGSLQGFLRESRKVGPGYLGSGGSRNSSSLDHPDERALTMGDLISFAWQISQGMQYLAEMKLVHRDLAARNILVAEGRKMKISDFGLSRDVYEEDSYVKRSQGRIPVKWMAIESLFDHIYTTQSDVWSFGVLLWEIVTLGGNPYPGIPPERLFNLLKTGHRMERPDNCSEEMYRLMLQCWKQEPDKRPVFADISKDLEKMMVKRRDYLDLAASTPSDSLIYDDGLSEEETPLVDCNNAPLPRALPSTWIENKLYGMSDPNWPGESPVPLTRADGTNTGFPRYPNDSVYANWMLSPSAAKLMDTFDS
Particulars: RET (R813Q), 10 uM; for remaining activity at 10 µM: read-out: % Enzyme Activity (relative to DMSO controls).

Experiment [3] deals with T3, 382 unique human kinases (Homo sapiens, UniProt Q9UM73, G1269S).
T3 construct: purchased Reaction Biology (HotSpot contract assay)
T3 sequence (Q9UM73 19-1620 G1269S): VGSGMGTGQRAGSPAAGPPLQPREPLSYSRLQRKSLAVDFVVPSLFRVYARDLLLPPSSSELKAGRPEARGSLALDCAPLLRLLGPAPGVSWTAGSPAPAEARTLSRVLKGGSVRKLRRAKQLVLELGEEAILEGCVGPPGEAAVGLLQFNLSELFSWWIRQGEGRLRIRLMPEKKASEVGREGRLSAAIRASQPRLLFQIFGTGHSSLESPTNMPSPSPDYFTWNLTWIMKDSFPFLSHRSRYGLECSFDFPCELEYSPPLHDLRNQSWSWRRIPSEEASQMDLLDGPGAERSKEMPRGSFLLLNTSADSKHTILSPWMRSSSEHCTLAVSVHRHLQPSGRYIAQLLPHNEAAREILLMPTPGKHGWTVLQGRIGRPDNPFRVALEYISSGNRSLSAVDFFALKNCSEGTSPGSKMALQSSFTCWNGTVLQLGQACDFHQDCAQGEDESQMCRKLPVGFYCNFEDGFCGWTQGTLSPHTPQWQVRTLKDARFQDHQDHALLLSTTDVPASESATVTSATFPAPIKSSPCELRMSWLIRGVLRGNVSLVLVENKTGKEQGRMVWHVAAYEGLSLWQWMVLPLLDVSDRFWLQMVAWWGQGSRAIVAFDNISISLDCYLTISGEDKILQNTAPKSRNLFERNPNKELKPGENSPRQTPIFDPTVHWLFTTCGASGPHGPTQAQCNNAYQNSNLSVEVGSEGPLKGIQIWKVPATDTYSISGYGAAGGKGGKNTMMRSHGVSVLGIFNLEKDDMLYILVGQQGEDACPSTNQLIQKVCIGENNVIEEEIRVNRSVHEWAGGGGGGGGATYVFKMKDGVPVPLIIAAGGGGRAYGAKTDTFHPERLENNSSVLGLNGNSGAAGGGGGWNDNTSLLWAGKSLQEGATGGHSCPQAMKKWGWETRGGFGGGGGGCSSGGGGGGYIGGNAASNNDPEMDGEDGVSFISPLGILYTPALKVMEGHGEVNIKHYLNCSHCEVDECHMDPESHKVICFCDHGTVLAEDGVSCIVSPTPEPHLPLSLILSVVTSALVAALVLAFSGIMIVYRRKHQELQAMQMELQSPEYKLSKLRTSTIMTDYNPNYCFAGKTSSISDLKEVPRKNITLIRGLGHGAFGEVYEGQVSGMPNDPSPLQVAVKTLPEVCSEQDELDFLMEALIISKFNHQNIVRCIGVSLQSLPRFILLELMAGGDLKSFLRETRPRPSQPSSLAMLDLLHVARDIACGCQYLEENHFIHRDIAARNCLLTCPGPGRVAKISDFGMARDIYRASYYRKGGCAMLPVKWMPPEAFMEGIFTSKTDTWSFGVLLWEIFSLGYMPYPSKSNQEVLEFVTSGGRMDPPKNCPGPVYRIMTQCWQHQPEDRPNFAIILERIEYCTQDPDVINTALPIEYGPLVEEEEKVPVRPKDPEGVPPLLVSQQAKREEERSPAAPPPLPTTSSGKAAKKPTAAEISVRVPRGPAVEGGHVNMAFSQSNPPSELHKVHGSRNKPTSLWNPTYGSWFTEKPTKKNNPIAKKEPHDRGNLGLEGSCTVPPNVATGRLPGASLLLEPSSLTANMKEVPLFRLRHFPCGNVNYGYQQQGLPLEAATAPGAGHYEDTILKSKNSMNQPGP
As to conditions: ALK (G1269S), 10 uM; for remaining activity at 10 µM: read-out: % Enzyme Activity (relative to DMSO controls).

The target of experiment [4] is T4, 382 unique human kinases (Homo sapiens, UniProt Q16566).
T4 construct: purchased Reaction Biology (HotSpot contract assay)
T4 sequence (Q16566 1-473): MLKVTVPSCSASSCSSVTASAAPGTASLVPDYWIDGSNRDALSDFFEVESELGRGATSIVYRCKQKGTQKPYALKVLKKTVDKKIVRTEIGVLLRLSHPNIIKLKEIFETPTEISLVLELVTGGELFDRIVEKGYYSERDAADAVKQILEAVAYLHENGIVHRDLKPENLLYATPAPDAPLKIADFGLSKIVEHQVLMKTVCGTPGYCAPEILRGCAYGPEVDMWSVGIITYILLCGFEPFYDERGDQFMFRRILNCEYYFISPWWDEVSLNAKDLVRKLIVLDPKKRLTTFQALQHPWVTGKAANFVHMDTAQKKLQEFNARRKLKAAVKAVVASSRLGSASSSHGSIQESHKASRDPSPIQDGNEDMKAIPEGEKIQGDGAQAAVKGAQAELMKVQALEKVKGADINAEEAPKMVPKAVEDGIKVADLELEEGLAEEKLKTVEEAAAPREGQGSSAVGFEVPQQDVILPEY
As to conditions: kinase CAMK4, compound 10 uM; for remaining activity at 10 µM: read-out: % Enzyme Activity (relative to DMSO controls).

In experiment [5] the target is T5, 382 unique human kinases (Homo sapiens, UniProt P10721, V559D/V654A).
T5 construct: purchased Reaction Biology (HotSpot contract assay)
T5 sequence (P10721 26-976 V559D/V654A): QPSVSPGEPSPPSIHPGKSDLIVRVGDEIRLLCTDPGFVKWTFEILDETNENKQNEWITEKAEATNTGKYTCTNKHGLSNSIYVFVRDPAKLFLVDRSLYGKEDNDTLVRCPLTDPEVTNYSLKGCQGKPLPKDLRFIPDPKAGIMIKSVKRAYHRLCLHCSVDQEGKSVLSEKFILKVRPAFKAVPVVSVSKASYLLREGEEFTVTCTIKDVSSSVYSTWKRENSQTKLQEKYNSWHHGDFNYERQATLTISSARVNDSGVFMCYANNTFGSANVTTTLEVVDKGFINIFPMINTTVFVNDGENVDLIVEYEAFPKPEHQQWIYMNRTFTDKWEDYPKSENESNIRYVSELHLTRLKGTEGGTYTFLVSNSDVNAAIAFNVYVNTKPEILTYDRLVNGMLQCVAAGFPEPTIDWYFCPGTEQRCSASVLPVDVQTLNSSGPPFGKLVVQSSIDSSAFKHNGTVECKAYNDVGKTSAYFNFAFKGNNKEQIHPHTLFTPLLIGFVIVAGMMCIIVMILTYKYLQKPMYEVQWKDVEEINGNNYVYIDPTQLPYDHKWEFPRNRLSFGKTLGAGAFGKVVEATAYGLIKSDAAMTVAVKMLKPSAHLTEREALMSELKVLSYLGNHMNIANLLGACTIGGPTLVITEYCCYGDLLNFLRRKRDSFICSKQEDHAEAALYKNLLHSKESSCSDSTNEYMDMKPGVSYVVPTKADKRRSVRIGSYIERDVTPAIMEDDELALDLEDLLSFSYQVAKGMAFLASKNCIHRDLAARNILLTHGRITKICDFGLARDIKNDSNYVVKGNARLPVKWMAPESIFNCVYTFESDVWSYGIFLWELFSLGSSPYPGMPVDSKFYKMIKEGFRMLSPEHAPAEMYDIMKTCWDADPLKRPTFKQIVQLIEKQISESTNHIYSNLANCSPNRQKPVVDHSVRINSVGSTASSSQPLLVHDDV
Particulars: c-Kit (V559D/V654A), 10 uM; for remaining activity at 10 µM: read-out: % Enzyme Activity (relative to DMSO controls).

Experiment [6] has as its target T6, 382 unique human kinases (Homo sapiens, UniProt P10721, A829P).
T6 construct: purchased Reaction Biology (HotSpot contract assay)
As to conditions: c-Kit (A829P), [ATP] 50 µM, compound 10 uM; for remaining activity at 10 µM: read-out: % Enzyme Activity (relative to DMSO controls).

T6 sequence (P10721 26-976 A829P): as the sequence (P10721 26-976 V559D/V654A) above, with D534V, A629V, A804P counted along it

As to `CC(C)c1cc(-c2n[nH]c(=O)n2-c2ccc3c(ccn3C)c2)c(O)cc1O` [Ganetespib (STA9090)], the remaining activity at 10 µM stood at 88.8% in experiment [1], 78% in experiment [2], 74.6% in experiment [3] and 91% in experiment [4].
Turning to `CC(C)c1cc(-c2n[nH]c(=O)n2-c2ccc3c(ccn3C)c2)c(O)cc1O` [Ganetespib], the remaining activity at 10 µM was determined as 91.1% in experiment [5] and 49.5% in experiment [6].
For the molecule `CCNC(=O)c1noc(-c2cc(C(C)C)c(O)cc2O)c1-c1ccc(CN2CCOCC2)cc1` [Luminespib (AUY-922)], the “% Enzyme Activity (relative to DMSO controls)” value in experiment [1] is 92.28%; in experiment [2] it was 103.53%; in experiment [3], 101.62%; in experiment [4], 90.30%. For the same molecule, the remaining activity at 10 µM in experiment [1] came out at 95%; in experiment [2], 105%; in experiment [3], 104%; in experiment [4], 93.7%.
For `CCNC(=O)c1noc(-c2cc(C(C)C)c(O)cc2O)c1-c1ccc(CN2CCOCC2)cc1` [Luminespib], in experiment [5], the “% Enzyme Activity (relative to DMSO controls)” value was determined as 102.17% and the remaining activity at 10 µM was found to be 103%. For the same molecule, in experiment [6], the “% Enzyme Activity (relative to DMSO controls)” value came to 84.14% and the remaining activity at 10 µM came to 85.3%.
